Reference: ChEMBL document CHEMBL3997764 (Medchemcomm, 2016)
Values after ≈ are worked out from the molar mass of the structure shown.

Assays:
[1] = molecular target: T1, Nuclear receptor subfamily 1 group I member 2 (Homo sapiens, UniProt O75469); experiment: Activation of PXR in human LS180 cells assessed as P-gp induction by measuring intracellular accumulation of rhodamine 123 per ug of total protein at 5 uM preincubated for 48 hrs followed by rhodamine 123 addition after 40 mins and measured after 90 mins by fluorescence assay relative to control; format: cell-based; details: 1.5 h
T1 sequence (O75469 whole entry): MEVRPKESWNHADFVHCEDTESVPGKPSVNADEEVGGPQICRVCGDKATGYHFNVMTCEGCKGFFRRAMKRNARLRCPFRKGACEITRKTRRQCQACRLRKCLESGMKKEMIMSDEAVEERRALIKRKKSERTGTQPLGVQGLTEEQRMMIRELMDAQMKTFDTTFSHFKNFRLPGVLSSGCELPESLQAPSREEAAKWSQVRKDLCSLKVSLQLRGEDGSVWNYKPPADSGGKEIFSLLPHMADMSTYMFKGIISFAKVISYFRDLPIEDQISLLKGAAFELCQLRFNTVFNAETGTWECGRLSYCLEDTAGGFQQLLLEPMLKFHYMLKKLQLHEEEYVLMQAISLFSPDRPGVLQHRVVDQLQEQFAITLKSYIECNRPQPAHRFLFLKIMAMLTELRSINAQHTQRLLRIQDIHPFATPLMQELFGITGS

[2] = Cytotoxicity against human LS180 cells assessed as cell viability at 30 uM after 24 hrs by MTT assay relative to control; format: cell-based; details: read-out: Activity
LS180 = experiment: Cytotoxicity against human LS180 cells assessed as reduction in cell viability after 24 hrs by MTT assay; format: cell-based; details: LS180, 24 h
[3] = molecular target: T2, P-gp (expression induced through PXR) (Homo sapiens, UniProt O75469); experiment: Activation of PXR in human LS180 cells assessed as induction of P-gp expression at 5 uM by Western blot method relative to control; format: cell-based; details: read-out: FC
T2 sequence (O75469 whole entry): T1 sequence (O75469 whole entry)

[4] = molecular target: T1, Nuclear receptor subfamily 1 group I member 2; experiment: Activation of PXR in human LS180 cells assessed as P-gp induction by measuring intracellular accumulation of rhodamine 123 preincubated for 48 hrs followed by rhodamine 123 addition after 40 mins and measured after 90 mins by fluorescence assay; format: cell-based
[5] = Thermodynamic aqueous solubility of the compound in water after overnight incubation; format: physicochemical; details: read-out: Therm_solubility
[6] = Thermodynamic aqueous solubility of the compound in phosphate buffered saline at pH 7.4 after overnight incubation; format: physicochemical; details: read-out: Therm_solubility
[7] = Thermodynamic aqueous solubility of the compound in simulated gastric fluid at pH 1.2 after overnight incubation; format: physicochemical; details: read-out: Therm_solubility
[8] = Thermodynamic aqueous solubility of the compound in simulated intestinal fluid at pH 6.8 after overnight incubation; format: physicochemical; details: read-out: Therm_solubility
CYP3A4 = CYP3A4 (Homo sapiens, UniProt P08684); experiment: Inhibition of human recombinant CYP3A4 at 10 uM by fluorescence analysis relative to control; format: ADME
Sequence of CYP3A4 (P08684 whole entry): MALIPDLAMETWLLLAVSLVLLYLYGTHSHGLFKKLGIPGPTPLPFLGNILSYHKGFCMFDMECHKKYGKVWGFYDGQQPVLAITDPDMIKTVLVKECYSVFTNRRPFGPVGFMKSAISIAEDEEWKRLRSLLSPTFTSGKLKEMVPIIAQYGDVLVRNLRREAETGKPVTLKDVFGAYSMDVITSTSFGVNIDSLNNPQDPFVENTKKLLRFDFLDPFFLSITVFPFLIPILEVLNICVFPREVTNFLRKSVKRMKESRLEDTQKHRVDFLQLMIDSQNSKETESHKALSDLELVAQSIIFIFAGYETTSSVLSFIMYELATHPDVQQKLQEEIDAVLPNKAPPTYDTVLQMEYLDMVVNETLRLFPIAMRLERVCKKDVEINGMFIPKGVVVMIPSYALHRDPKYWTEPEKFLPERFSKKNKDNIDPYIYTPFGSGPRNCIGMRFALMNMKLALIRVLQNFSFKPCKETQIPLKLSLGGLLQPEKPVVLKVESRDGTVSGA

CYP2D6 = CYP2D6 (Homo sapiens, UniProt P10635); experiment: Inhibition of human recombinant CYP2D6 at 10 uM by fluorescence analysis relative to control; format: ADME
Sequence of CYP2D6 (P10635 whole entry): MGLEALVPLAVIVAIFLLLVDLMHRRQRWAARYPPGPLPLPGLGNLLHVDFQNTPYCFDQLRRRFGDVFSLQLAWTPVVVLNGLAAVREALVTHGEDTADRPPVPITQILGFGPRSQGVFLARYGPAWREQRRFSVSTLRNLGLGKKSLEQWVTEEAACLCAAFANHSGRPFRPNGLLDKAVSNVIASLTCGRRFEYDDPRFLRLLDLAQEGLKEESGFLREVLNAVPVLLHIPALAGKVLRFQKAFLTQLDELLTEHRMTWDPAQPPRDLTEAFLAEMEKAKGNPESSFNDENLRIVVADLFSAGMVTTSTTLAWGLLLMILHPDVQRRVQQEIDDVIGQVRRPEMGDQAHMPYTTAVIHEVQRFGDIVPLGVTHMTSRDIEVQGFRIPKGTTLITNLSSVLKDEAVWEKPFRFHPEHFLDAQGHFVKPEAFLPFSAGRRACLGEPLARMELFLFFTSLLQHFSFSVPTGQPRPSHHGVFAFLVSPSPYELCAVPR

CYP2C9 = CYP2C9 (Homo sapiens, UniProt P11712); experiment: Inhibition of human recombinant CYP2C9 at 10 uM by fluorescence analysis relative to control; format: ADME
Sequence of CYP2C9 (P11712 whole entry): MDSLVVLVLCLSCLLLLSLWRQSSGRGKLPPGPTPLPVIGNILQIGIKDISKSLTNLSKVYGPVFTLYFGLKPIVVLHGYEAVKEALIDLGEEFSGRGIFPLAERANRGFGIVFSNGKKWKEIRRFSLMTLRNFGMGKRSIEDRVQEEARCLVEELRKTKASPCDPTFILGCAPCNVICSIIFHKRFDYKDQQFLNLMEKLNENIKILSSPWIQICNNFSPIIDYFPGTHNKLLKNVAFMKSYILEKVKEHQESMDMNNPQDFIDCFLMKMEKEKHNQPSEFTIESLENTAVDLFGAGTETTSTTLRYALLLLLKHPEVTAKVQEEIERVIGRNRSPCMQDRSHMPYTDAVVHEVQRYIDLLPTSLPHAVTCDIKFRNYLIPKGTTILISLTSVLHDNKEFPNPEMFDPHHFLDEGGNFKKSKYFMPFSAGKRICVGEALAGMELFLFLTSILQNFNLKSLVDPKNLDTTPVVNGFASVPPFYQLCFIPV

CYP2C19 = CYP2C19 (Homo sapiens, UniProt P33261); experiment: Inhibition of human recombinant CYP2C19 at 10 uM by fluorescence analysis relative to control; format: ADME
Sequence of CYP2C19 (P33261 whole entry): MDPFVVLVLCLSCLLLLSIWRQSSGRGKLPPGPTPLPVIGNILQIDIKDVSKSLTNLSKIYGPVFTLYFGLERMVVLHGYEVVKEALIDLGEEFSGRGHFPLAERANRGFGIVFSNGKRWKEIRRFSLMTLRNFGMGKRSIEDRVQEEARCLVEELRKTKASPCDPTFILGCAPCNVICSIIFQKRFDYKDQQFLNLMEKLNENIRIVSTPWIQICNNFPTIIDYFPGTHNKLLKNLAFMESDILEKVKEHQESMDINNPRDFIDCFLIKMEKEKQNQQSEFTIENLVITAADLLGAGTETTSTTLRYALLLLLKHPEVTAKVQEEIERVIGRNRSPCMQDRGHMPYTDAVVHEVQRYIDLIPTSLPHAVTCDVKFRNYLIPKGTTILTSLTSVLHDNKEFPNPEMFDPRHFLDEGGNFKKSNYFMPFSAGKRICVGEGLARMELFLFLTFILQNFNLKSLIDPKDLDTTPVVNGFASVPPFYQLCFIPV

[9] = Efflux ratio of permeability in human Caco2 cells after 90 mins by LC-MS/MS analysis; format: ADME, cell-based; details: Caco-2
[10] = Terminal half life in BALB/c mouse plasma at 1 mg/kg, iv by LC-MS/MS analysis; format: ADME, organism-based; details: read-out: beta t1/2 (converted)
[11] = AUC (0 to t) in BALB/c mouse plasma at 1 mg/kg, iv up to 24 hrs by LC-MS/MS analysis; format: ADME, organism-based; set-up: dose 1 mg/kg, time < 24 hr, route intravenous
[12] = AUC (0 to infinity) in BALB/c mouse plasma at 1 mg/kg, iv up to 24 hrs by LC-MS/MS analysis; format: ADME, organism-based; set-up: dose 1 mg/kg, route intravenous, time infinity
[13] = Cmax in BALB/c mouse plasma at 1 mg/kg, iv up to 24 hrs by LC-MS/MS analysis; format: ADME, organism-based; set-up: dose 1 mg/kg, route intravenous
[14] = Clearance in BALB/c mouse plasma at 1 mg/kg, iv up to 24 hrs by LC-MS/MS analysis; format: ADME, organism-based
[15] = Initial plasma concentration in BALB/c mouse at 1 mg/kg, iv up to 24 hrs by LC-MS/MS analysis; format: ADME, organism-based
[16] = Volume of distribution in BALB/c mouse at 1 mg/kg, iv up to 24 hrs by LC-MS/MS analysis; format: ADME, organism-based; details: in vivo
[17] = Volume of distribution at steady state in BALB/c mouse at 1 mg/kg, iv up to 24 hrs by LC-MS/MS analysis; format: ADME, organism-based; details: in vivo, read-out: Vdss
Mus musculus = experiment: Tlast in BALB/c mouse at 1 mg/kg, iv up to 24 hrs by LC-MS/MS analysis; format: ADME, organism-based; details: in vivo
[18] = Terminal half life in BALB/c mouse plasma at 10 mg/kg, po by LC-MS/MS analysis; format: ADME, organism-based; details: read-out: beta t1/2 (converted)
[19] = AUC (0 to t) in BALB/c mouse plasma at 10 mg/kg, po up to 24 hrs by LC-MS/MS analysis; format: ADME, organism-based; set-up: dose 10 mg/kg, time < 24 hr, route oral
[20] = AUC (0 to infinity) in BALB/c mouse plasma at 10 mg/kg, po up to 24 hrs by LC-MS/MS analysis; format: ADME, organism-based; set-up: dose 10 mg/kg, time infinity, route oral
[21] = Cmax in BALB/c mouse plasma at 10 mg/kg, po up to 24 hrs by LC-MS/MS analysis; format: ADME, organism-based; set-up: dose 10 mg/kg, route oral
[22] = Tmax in BALB/c mouse plasma at 10 mg/kg, po up to 24 hrs by LC-MS/MS analysis; format: ADME, organism-based
[23] = Oral bioavailability in BALB/c mouse plasma at 10 mg/kg up to 24 hrs by LC-MS/MS analysis; format: ADME, organism-based

## CCOP(=O)(/C=C/c1ccc(Cl)cc1)OCC
[1]
  Activity: 76.38%
[2]
  viability at 24 h, 30 µM: 82%
LS180
  IC50: > 30 µM

## CCOP(=O)(OCC)C(Nc1ccccc1)c1ccc(Cl)cc1 (stereo not drawn)
[1]
  Activity: 90.85%
[2]
  viability at 24 h, 30 µM: 100%
LS180
  IC50: > 30 µM

## CC(C)OP(=O)(OC(C)C)C(=Cc1ccc([N+](=O)[O-])o1)P(=O)(OC(C)C)OC(C)C
[1]
  Activity: 67.84%
[2]
  viability at 24 h, 30 µM: 41%

## CCOP(=O)(/C=C/c1ccc(OC)c(Br)c1)OCC
[1]
  Activity: 70.49%
[2]
  viability at 24 h, 30 µM: 100%
LS180
  IC50: > 30 µM

## COc1cc(OC)c(OC)cc1C=C(P(=O)(OC(C)C)OC(C)C)P(=O)(OC(C)C)OC(C)C
[1]
  Activity: 64.07%
[2]
  viability at 24 h, 30 µM: 100%
LS180
  IC50: > 30 µM

## CCOP(=O)(OCC)C(=Cc1ccccc1)P(=O)(OCC)OCC
[1]
  Activity: 58.09%
[2]
  viability at 24 h, 30 µM: 100%
[3]
  fold induction at 5 µM: 7.2
[4]
  EC50: 0.271 µM
[5]
  solubility thermodynamic: > 1500 µg/mL
[6]
  solubility thermodynamic: > 1500 µg/mL
[7]
  solubility thermodynamic: > 1500 µg/mL
[8]
  solubility thermodynamic: 40 µg/mL (≈ 0.106 mM)
CYP3A4
  inhibition at 10 µM: 19%
CYP2D6
  inhibition at 10 µM: 20%
CYP2C9
  inhibition at 10 µM: 0%
CYP2C19
  inhibition at 10 µM: 0%
[9]
  efflux ratio at 1.5 h: 0.9
[10]
  half-life: 41.4 min
[11]
  AUC(0-t) at 24 h: 543 ng·h/mL
[12]
  AUC(0-inf): 549 ng·h/mL
[13]
  Cmax: 811 ng/mL
[14]
  clearance: 30.4 mL/min/kg
[15]
  C0 at 24 h: 1150 ng/mL
[16]
  Vd: 1.81 L/kg
[17]
  Vd: 1.1 L/kg
Mus musculus
  Tlast: 4 h
[18]
  half-life: 209 min
[19]
  AUC(0-t) at 24 h: 1970 ng·h/mL
[20]
  AUC(0-inf): 2070 ng·h/mL
[21]
  Cmax: 870 ng/mL
[22]
  Tmax: 30 min
[23]
  bioavailability: 37.6%
LS180
  IC50: > 30 µM

## CC(C)OP(=O)(OC(C)C)C(=Cc1ccccc1)P(=O)(OC(C)C)OC(C)C
[1]
  Activity: 73.88%
[2]
  viability at 24 h, 30 µM: 92%
LS180
  IC50: > 30 µM

## CC(C)OP(=O)(OC(C)C)C(=Cc1ccc2c(c1)OCO2)P(=O)(OC(C)C)OC(C)C
[1]
  Activity: 83.27%
[2]
  viability at 24 h, 30 µM: 100%
LS180
  IC50: > 30 µM

## CC(C)OP(=O)(OC(C)C)C(=Cc1cccc2ccccc12)P(=O)(OC(C)C)OC(C)C
[1]
  Activity: 63.71%
[2]
  viability at 24 h, 30 µM: 100%
LS180
  IC50: > 30 µM

## CC(C)OP(=O)(OC(C)C)C(=Cc1ccc(N(C)C)cc1)P(=O)(OC(C)C)OC(C)C
[1]
  Activity: 65.32%
[2]
  viability at 24 h, 30 µM: 100%
LS180
  IC50: > 30 µM

## CC(C)OP(=O)(OC(C)C)C(=Cc1cc(C(C)(C)C)c(O)c(C(C)(C)C)c1)P(=O)(OC(C)C)OC(C)C
[1]
  Activity: 66.93%
[2]
  viability at 24 h, 30 µM: 100%
LS180
  IC50: > 30 µM

## CO[C@H]1/C=C/O[C@@]2(C)Oc3c(C)c(O)c4c(O)c(c(/C=N/N5CCN(C)CC5)c(O)c4c3C2=O)NC(=O)/C(C)=C\C=C\[C@H](C)[C@H](O)[C@@H](C)[C@@H](O)[C@@H](C)[C@H](OC(C)=O)[C@@H]1C [RIFAMPIN]
[1]
  Activity: 77.3%

## CCOP(=O)(/C=C/c1ccc(F)c(Br)c1)OCC
[1]
  Activity: 97.7%
[2]
  viability at 24 h, 30 µM: 100%
LS180
  IC50: > 30 µM

## CCOP(=O)(C#Cc1ccc(C(F)(F)F)cc1)OCC
[1]
  Activity: 74.63%
[2]
  viability at 24 h, 30 µM: 100%
LS180
  IC50: > 30 µM

## CCOP(=O)(C#Cc1cccc(C(F)(F)F)c1)OCC
[1]
  Activity: 75.16%
[2]
  viability at 24 h, 30 µM: 100%
LS180
  IC50: > 30 µM
